Measured values reported in US8119635B2, “Diazabicyclic central nervous system active agents” (Abbott Laboratories, priority 2000, dated 2012).
Structures can show the parent of a compound that is named as a salt. Where two headings read alike, the source gives them in different places.

Legend:
[1] = molecular target: T1, neuronal nicotinic acetylcholine receptors (Rattus norvegicus, UniProt P09483+P12390); experiment: Binding of [3H]-cytisine to neuronal nicotinic acetylcholine receptors, crude synaptic membranes from whole rat brain
T1 construct: crude synaptic membrane preparations from whole rat brain; from tissue; host or cells: whole rat brain, crude synaptic membranes
T1 sequence (P09483 31-630): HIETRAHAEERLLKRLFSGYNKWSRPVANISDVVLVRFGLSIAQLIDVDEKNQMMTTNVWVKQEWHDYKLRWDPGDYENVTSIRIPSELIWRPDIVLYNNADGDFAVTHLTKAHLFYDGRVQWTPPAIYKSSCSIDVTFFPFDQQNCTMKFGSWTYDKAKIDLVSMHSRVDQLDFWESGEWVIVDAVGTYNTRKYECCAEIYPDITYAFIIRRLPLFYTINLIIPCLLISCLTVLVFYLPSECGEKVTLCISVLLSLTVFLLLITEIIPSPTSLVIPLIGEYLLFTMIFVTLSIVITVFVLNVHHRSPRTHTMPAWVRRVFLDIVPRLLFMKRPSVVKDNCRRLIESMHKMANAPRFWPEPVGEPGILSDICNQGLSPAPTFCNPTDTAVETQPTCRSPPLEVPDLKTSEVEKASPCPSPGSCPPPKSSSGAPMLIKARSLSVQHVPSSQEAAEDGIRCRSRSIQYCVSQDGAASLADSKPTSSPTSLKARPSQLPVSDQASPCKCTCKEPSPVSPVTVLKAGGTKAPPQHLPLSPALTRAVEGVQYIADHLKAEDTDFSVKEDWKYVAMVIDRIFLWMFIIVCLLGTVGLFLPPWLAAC
T1 sequence (P12390 25-500): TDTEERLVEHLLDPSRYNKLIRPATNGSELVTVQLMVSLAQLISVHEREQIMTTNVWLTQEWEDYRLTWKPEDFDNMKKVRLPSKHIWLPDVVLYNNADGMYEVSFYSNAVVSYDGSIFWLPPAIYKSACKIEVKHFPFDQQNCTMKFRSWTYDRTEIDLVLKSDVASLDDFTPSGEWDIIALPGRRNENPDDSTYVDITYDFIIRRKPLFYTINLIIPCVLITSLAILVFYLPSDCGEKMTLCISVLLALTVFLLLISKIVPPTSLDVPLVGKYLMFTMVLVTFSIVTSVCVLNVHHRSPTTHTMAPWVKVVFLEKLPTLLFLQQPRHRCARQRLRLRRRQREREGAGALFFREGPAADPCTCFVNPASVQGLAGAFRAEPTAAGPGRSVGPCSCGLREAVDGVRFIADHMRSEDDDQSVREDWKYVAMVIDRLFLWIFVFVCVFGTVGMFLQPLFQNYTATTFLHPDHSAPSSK
Description: The In Vitro protocols for determination of nicotinic acetylcholine channel receptor binding potencies of ligands were determined as follows.
Washed membranes were stored at −80° C. prior to use. Frozen aliquots were slowly thawed and resuspended in 20 volumes of buffer (containing: 120 mM NaCl, 5 mM KCl, 2 mM MgCl2, 2 mM CaCl2 and 50 mM Tris-Cl, pH 7.4 @[…]). After centrifuging at 20,000×g for 15 minutes, the pellets were resuspended in 30 volumes of buffer.
The test compounds were dissolved in water to make 10 mM stock solutions. Each solution was then diluted (1:100) with buffer (as above) and further taken through seven serial log dilutions to produce test solutions from 10^−5 to 10^−11 M.
Samples were incubated for 60 minutes at 4° C., then rapidly filtered through Whatman GF/B filters presoaked in 0.5% polyethyleneimine using 3×4 mL of ice-cold buffer. The filters are counted in 4 mL of Ecolume® (ICN). Nonspecific binding was determined in the presence of 10 μM (−)-nicotine and values were expressed as a percentage of total binding. IC50 values were determined with the RS-1 (BBN) nonlinear least squares curve-fitting program and IC50 values were converted to Ki values using the Cheng and Prusoff correction (Ki=IC50/(1+[ligand]/Kd of ligand).

mice = experiment: Mouse hot plate paradigm (analgesia); format: in vivo; details: ip, 0.5 h, intraperitoneal, dosed 30 minutes prior to testing, hot plate 55° C., latency until the tenth jump, read-out: (MED) minimally effective dose, mouse hot plate
Description: An in vivo protocol was utilized to determine the effectiveness of nicotinic acetylcholine receptor ligands as analgesic agents in the mouse hot plate paradigm.
Separate groups of mice, (n=8/group) were utilized for each dose group. All drugs were administered by the intraperitoneal route of administration. Test drugs were dissolved in water to make a 6.2 mM stock solution. Animals were dosed with this solution (10 mL/kg body weight) for a 62 micromol/kg dose. Lower doses were administered similarly, following serial dilution of the stock solution in half-log increments. Animals were dosed 30 minutes prior to testing in the hot plate. The hot-plate utilized was an automated analgesia monitor (Model #AHP16AN, Omnitech Electronics, Inc. of Columbus, Ohio). The temperature of the hot plate was maintained at 55° C. and a cut-off time of 180 seconds was utilized. Latency until the tenth jump was recorded as the dependent measure. An increase in the tenth jump latency relative to the control was considered an effect.

Male Sprague-Dawley rats = experiment: Formalin test (analgesia); format: in vivo; details: Rattus norvegicus, ip, intraperitoneally 5 minutes before injection of 50 μL 5% formalin into rear paw, nocifensive behaviors, read-out: (MED) minimally effective dose, formalin test
Description: Another in vivo protocol utilized to determine the effectiveness of nicotinic acetylcholine receptor ligands as analgesic agents was the formalin test.
Male Sprague-Dawley rats (Charles River, Portage, Mich.) weighing 200 to 400 grams were used for all experiments. After a 20 minute period of acclimation to individual cages, 50 μL of a 5% formalin solution was injected subcutaneous into the dorsal aspect of one of the rear paws and the rats were then returned to the clear observation cages suspended above mirror panels. […] Phase 1 of the formalin test was defined as the period of time immediately after injection of formalin until 10 minutes after the formalin injection (i.e., 0-10 minutes after formalin). Phase 2 was defined as the 20 minute period from 30 to 50 minutes after formalin injection. The investigator recorded nocifensive behaviors in the injected paw of four animals during the session by observing each animal for one 15 second observation period during each 1 minute interval. Nocifensive behaviors recorded included flinching, licking or biting the injected paw. In dose-response studies, the test compound (or saline) was administered intraperitoneally 5 minutes before injection of formalin.

Clc1ccc(N2C[C@H]3CCN[C@H]3C2)cn1 (relative stereo) [Example 13, cis-5-(6-chloro-3-pyridinyl)octahydropyrrolo[3,4-b]pyrrole hydrochloride]
Ki [1]: 1.5 nM
minimal effective dose (mice): 6.2 µmol/kg
minimal effective dose (Male Sprague-Dawley rats): 0.62 µmol/kg

Clc1ccc(N2C[C@H]3CCCN[C@H]3C2)cn1 (relative stereo) [Example 22, cis-6-(6-chloro-3-pyridinyl)octahydro-1H-pyrrolo[3,4-b]pyridine dihydrochloride]
Ki [1]: 11 nM
minimal effective dose (mice): 19 µmol/kg
minimal effective dose (Male Sprague-Dawley rats): 1.9 µmol/kg

c1cncc(N2C[C@H]3CCCN[C@H]3C2)c1 (relative stereo) [Example 23, cis-6-(3-pyridinyl)octahydro-1H-pyrrolo[3,4-b]pyridine dihydrochloride]
Ki [1]: 4.1 nM
minimal effective dose (mice): 62 µmol/kg
minimal effective dose (Male Sprague-Dawley rats): 0.62 µmol/kg

c1cncc(N2CC[C@H]3CN[C@H]3C2)c1 (relative stereo) [Example 33, (cis)-3-(3-pyridinyl)-3,8-diazabicyclo[4.2.0]octane tris(4-methylbenzenesulfonate)]
Ki [1]: 0.02 nM
minimal effective dose (mice): 1.9 µmol/kg
minimal effective dose (Male Sprague-Dawley rats): 0.62 µmol/kg

Cl.Cl.c1cncc(N2C[C@H]3CNC[C@H]3C2)c1 [Example 1, cis-2-(3-pyridinyl)octahydropyrrolo[3,4-c]pyrrole dihydrochloride]
Ki [1]: 0.12 nM
minimal effective dose (mice): 19 µmol/kg
minimal effective dose (Male Sprague-Dawley rats): 0.62 µmol/kg
melting point: 250 to 252 °C (dec.)

CN1C[C@@H]2CN(c3cccnc3)C[C@@H]2C1.Cl [Example 2, cis-2-methyl-5-(3-pyridinyl)octahydropyrrolo[3,4-c]pyrrole hydrochloride]
Ki [1]: 26 nM
melting point: 207 to 209 °C

Cl.Clc1ccc(N2C[C@H]3CNC[C@H]3C2)cn1 [Example 3, cis-2-(6-chloro-3-pyridinyl)octahydropyrrolo[3,4-c]pyrrole hydrochloride]
Ki [1]: 0.2 nM
minimal effective dose (mice): 6.2 µmol/kg
melting point: 230 to 236 °C (dec.)

Cl.Cl.c1ccc2ncc(N3C[C@H]4CNC[C@H]4C3)cc2c1 [Example 5, cis-2-(3-quinolinyl)octahydropyrrolo[3,4-c]pyrrole dihydrochloride]
Ki [1]: 1.7 nM
melting point: > 260 °C

COc1cncc(N2C[C@H]3CNC[C@H]3C2)c1 [Example 7, cis-2-(5-methoxy-3-pyridinyl)octahydropyrrolo[3,4-c]pyrrole dihydrochloride]
Ki [1]: 0.08 nM
minimal effective dose (mice): 19 µmol/kg
minimal effective dose (Male Sprague-Dawley rats): 6.2 µmol/kg

CCOc1cncc(N2C[C@H]3CNC[C@H]3C2)c1 [Example 8, cis-2-(5-ethoxy-3-pyridinyl)octahydropyrrolo[3,4-c]pyrrole dihydrochloride]
Ki [1]: 0.04 nM
minimal effective dose (mice): 6.2 µmol/kg
melting point: 226 to 227 °C

CCCOc1cncc(N2C[C@H]3CNC[C@H]3C2)c1 [Example 9, cis-2-(5-propoxy-3-pyridinyl)octahydropyrrolo[3,4-c]pyrrole semi(fumarate)]
Ki [1]: 0.04 nM
minimal effective dose (mice): 19 µmol/kg

COc1cc(N2C[C@H]3CNC[C@H]3C2)cnc1Cl [Example 10, cis-2-(6-chloro-5-methoxy-3-pyridinyl)octahydropyrrolo[3,4-c]pyrrole dihydrochloride]
Ki [1]: 0.03 nM
minimal effective dose (mice): 6.2 µmol/kg
minimal effective dose (Male Sprague-Dawley rats): 1.9 µmol/kg

Cc1cc(N2C[C@H]3CNC[C@H]3C2)cnc1Cl [Example 11, cis-2-(6-chloro-5-methyl-3-pyridinyl)octahydropyrrolo[3,4-c]pyrrole dihydrochloride]
Ki [1]: 0.04 nM
minimal effective dose (mice): 6.2 µmol/kg

Cl.Cl.FC(F)(F)COc1cncc(N2C[C@H]3CNC[C@H]3C2)c1 [Example 12, cis-2-[5-(2,2,2-trifluoroethoxy)-3-pyridinyl]octahydropyrrolo[3,4-c]pyrrole dihydrochloride]
Ki [1]: 0.05 nM
minimal effective dose (mice): 62 µmol/kg
melting point: 233 to 234 °C (dec.)

Clc1ccc(N2C[C@H]3CCN[C@H]3C2)cn1 [Example 14, (3aR,6aR)-5-(6-chloro-3-pyridinyl)octahydropyrrolo[3,4-b]pyrrole dihydrochloride]
Ki [1]: 1.1 nM
minimal effective dose (mice): 1.9 µmol/kg
minimal effective dose (Male Sprague-Dawley rats): 0.62 µmol/kg

Clc1ccc(N2C[C@@H]3CCN[C@@H]3C2)cn1 [Example 15, (3aS,6aS)-5-(6-chloro-3-pyridinyl)octahydropyrrolo[3,4-b]pyrrole dihydrochloride]
Ki [1]: 6.3 nM
minimal effective dose (mice): 19 µmol/kg
minimal effective dose (Male Sprague-Dawley rats): > 6.2 µmol/kg

Clc1cc(N2C[C@H]3CCN[C@H]3C2)cnc1Cl [Example 24, (3aR,6aR)-5-(5,6-dichloro-3-pyridinyl)octahydropyrrolo[3,4-b]pyrrole hydrochloride]
Ki [1]: 0.16 nM
minimal effective dose (mice): 6.2 µmol/kg
minimal effective dose (Male Sprague-Dawley rats): 6.2 µmol/kg

Cc1cc(N2C[C@@H]3CCN[C@@H]3C2)cnc1Cl [Example 26, (3aS,6aS)-5-(6-chloro-5-methyl-3-pyridinyl)octahydropyrrolo[3,4-b]pyrrole hydrochloride]
Ki [1]: 0.62 nM
minimal effective dose (mice): 19 µmol/kg

Cc1cc(N2C[C@H]3CCN[C@H]3C2)cnc1Cl [Example 27, (3aR,6aR)-5-(6-chloro-5-methyl-3-pyridinyl)octahydropyrrolo[3,4-b]pyrrole hydrochloride]
Ki [1]: 0.1 nM
minimal effective dose (mice): 1.9 µmol/kg

c1cncc(N2C[C@H]3CCN[C@H]3C2)c1 [Example 28, (3aR,6aR)-5-(3-pyridinyl)octahydropyrrolo[3,4-b]pyrrole dihydrochloride]
Ki ([1]; [3H]-CYT 1.25 nM, whole rat brain membranes, 60 minutes at 4° C., IC50 converted to Ki by Cheng and Prusoff correction, read-out: Average Ki): 0.34 nM
minimal effective dose (mice): 6.2 µmol/kg
minimal effective dose (Male Sprague-Dawley rats): 1.9 µmol/kg

COc1cncc(N2C[C@H]3CCN[C@H]3C2)c1 [Example 29, (3aR,6aR)-5-(5-methoxy-3-pyridinyl)octahydropyrrolo[3,4-b]pyrrole dihydrochloride]
Ki [1]: 0.35 nM
minimal effective dose (mice): 19 µmol/kg
minimal effective dose (Male Sprague-Dawley rats): 6.2 µmol/kg
